Assay results as given in patent publication US6949528B1, “Compositions containing lysophosphatidic acids which inhibit apoptosis and uses thereof” (priority 1998, dated 2005).
Like-named read-outs stand apart in the source and are kept apart here.

How the values were obtained:
Assay type in all cases: cell-based
C3H/10T1/2 cells [1] = test: Anti-apoptotic activity assay: serum deprivation of C3H/10T1/2 cells; conditions: for activity compared with lysophosphatidic acid: Table 3
Text: In order to determine the […] of the claimed invention, the following method of analysis was used. The cell assay is described in detail in U.S. Pat. Nos. 5,637,486, 5,620,888, and 5,681,703, and Tomei et al. (1993) Proc Natl. Aci. 90:853-857. Briefly, mouse fibroblast C3H/10T1/2 cells (clone 8) were obtained from ATCC (Rockville, Md.) and were maintained in exponential growth phase in which the cell cycle is randomly distributed and no cells are arrested in G0, and in quiescence. Exponential growth phase was assured by seeding at 2000 cells per 1 ml (5 ml for 60 mm culture plate) five days prior to the beginning of the experiment. Assays were performed on cells only up to passage 15. At T=0, cultures were transferred to serum-free medium, as an appropriate stimulus, and seed extracts were added. Controls included 10^−7 and 5×10^−8 M 12-O-tetradecanoyl phorbol-13-acetate (TPA) to ensure the responsiveness of the cell culture. The samples were added to serum free medium and sterile filtered prior to addition to the cultures. Assays were performed in triplicate or quadruplicate. Analyses of the cell responses were made between 18 and 28 hours of serum deprivation. Two assays were performed on each cell culture plate consisting of differential cell counts.
1. All non-adherent or loosely adherent cells were removed from the culture dish and counted by appropriate techniques, typically counting by electronic particle counting instrument. These are the apoptotic cells, the serum deprived released cells (SDR), released by the action of cultivation in serum-free medium. Approximately 95% of these released cells are apoptotic as shown by both ultrastructure analysis and DNA fragmentation analysis.
2. The remaining adherent cells (ADH) were exposed to a buffered, typically pH 7.3, balanced salt solution such as a Hanks Balanced Salt Solution without calcium and magnesium salts containing 0.05% trypsin and 0.53 mM ethylene diaminetetraacetic acid (EDTA). Each culture was incubated at either room temperature or 37(C on a rocking platform to ensure uniform distribution of the trypsin reagent over the culture surface. After a standardized period of time, typically 10 minutes, the released cells were removed from each culture dish and measured by the same means as described above, typically electronic particle counting. This ADH cell count is comprised of both trypsin resistant and trypsin sensitive cells as described in U.S. Pat. Nos. 5,637,486, 5,620,888, and 5,681,703.
Anti-apoptotic activity is expressed in the following examples as the calculated concentration of material ((g/ml of media) required to save 50% of the cells released on serum free treatment.
The ability of 18:1-LPA an other LPAs to protect serum-starved cells from apoptotic death was measured using the C3H/10T1/2 cell assay, performed as described in Example 2. The effect of various compounds on the ability of lysophosphatidic acid to protect serum-starved cells from apoptotic death was also measured. Log phase cells were seeded in 60 mm Petri dishes at 175-350 cells per cm2 and maintained in Basal Medium Eagle (BME) supplemented with 10% Heat Inactivated Fetal Bovine Serum (HIFBS). On day 3 the cells were given fresh media. Treatment began on day 5 when the media containing serum was removed and replaced with the LPA mixture to be tested. After 24 hours of treatment, day 6, serum deprived released (SDR) cells (the […] cell population) and adherent (ADH) cells were separated and counted using an electronic cell counter (Coulter Corporation, Hialea, Fla.). […]

[2] = system: rat neonatal cardiomyocytes; test: Cardiomyocyte death induced by serum/glucose deprivation; conditions: for Emax: Rattus norvegicus, Cardiomyocyte, read-out: Maximum effect relative to 18:1 LPA in cardiomyocytes
Description: Cardiomyocytes were prepared from hearts of day-old Sprague Dawley rats by trypsinization and mechanical disaggregation (Simpson, (1985)) Circ. Res. 56:884-894. The cells were resuspended in MEM, 1×MEM vitamins (Gibco), 5% fetal bovine serum and 50 U/ml penicillin-G and pre-plated for 30 minutes to reduce contamination of non-myocytes. The non-adherent cardiac myocytes were separated and seeded in 2 ml in 35 mm dishes at a density of 3.5×10^5 viable cells per ml. The cells were allowed to adhere for 16-24 hours in a 37° C./5% CO2 humidified incubator.
For serum deprivation, the medium was replaced with fresh serum-free RPMI, whereas serum/glucose deprivation was performed using glucose-free RPMI. The induction of cell death by adriamycin or C2-ceramide was accomplished by the addition of the agent prepared in serum-free RPMI. As a model of ischemia, cultures in serum and glucose free RPMI were placed in an airtight chamber and the latter was continuously perfused with oxygen-free gas overlay of 95% N2/5% CO2 for 8 hours at 37° C. To model reperfusion of the ischemic cells, 10% fetal bovine serum, 2 g/L of glucose were added and the cultures were returned to a normal oxygen gas overlay (37° C./5% CO2) in a humidified incubator for 16 hours.
T investigate effects of LPA, LPA plus other phospholipids, PEG or their mixtures on cell death, various combinations of these components were added to cells in serum free medium at the beginning of cytotoxic treatment.
Because cardiomyocytes are terminally differentiated non-dividing cells, viability was determined by measurement of the decrease in the relative number of adherent cells. […] Adherent cardiomyocytes were collected from culture dishes using 0.25% Trypsin/0.05% EDTA and counted on Coulter Counter ZM and Coulter Channelyzer 256.

C3H/10T1/2 cells [3] = test: Effect of proteins on anti-apoptotic activity of soy LPA, C3H/10T1/2 cell assay; conditions: for Protein +10 (g/mL Soy LPA, percent cells saved from apoptosis): 1:10 soy-LPA to protein (weight:weight); for Protein +10 (g/mL Soy LPA, percent cells saved from apoptosis) / Protein Alone (0.01%), percent cells saved from apoptosis: 24 hours serum deprivation; for Increase with LPA: difference protein + soy LPA minus protein alone; for Protein Alone (0.01%), percent cells saved from apoptosis: protein without LPA; for enhancement of the anti-apoptotic activity of soy-LPA (more than additive protection): soy-LPA added together with protein
Description: Soy derived LPA (soy-LPA) (Avanti® Polar Lipids, Inc., Alabaster, Ala.) was stored in an organic solution and was dried immediately prior to assay using a Speed Vac (Savant Instruments, Hicksville, N.Y.). Tested proteins were resuspended at 10_mg/mL in a bicarbonate buffered saline/EDTA solution (50_mM NH4HCO3, […] NaCl, 250_(M EDTA) prior to being added to dried soy-LPA at a 1:10_soy-LPA to protein (weight:weight) ratio. The mixture was then sonicated for 5 minutes using a high power 80 Watt sonication bath (Laboratory Supplies Co., Hicksville, N.Y.). Following sonication, concentrated LPA/protein mixtures were left standing for 15 minutes at room temperature prior to dilution in cell culture assay media.
The effect of various proteins on the ability of LPA to protect serum-starved cells from apoptotic death was measured using the C3H/10T1/2 cell assay, performed as described in Example 2, above. Log phase cells were seeded in 60 mm Petri dishes at 175-350 cells per cm^2 and maintained in Basal Medium Eagle (BME) supplemented with 10% fetal calf serum (Hyclone, Logan, Utah). At time zero, serum containing media was replaced with sterile filtered BME containing the LPA/protein mixture to be tested. After 24 hours of treatment, serum deprived release (SDR) cells (the apoptotic cell population) and adherent (ADH) cells were separated and counted using an electronic cell counter (Coulter Corporation, Hialea, Fla.). SDR cells were counted with the lower threshold setting at 6.3_(m and were defined as the apoptotic cells dying in response to cultivation in serum-free-media. Approximately 95% of the SDR cells are confirmed to be apoptotic as previously shown by size, ultrastructure and DNA fragmentation analysis. Adherent cells were removed by treatment with a Hanks' balanced salt solution containing 0.05% trypsin and 0.53_mM EDTA and were counted with the lower threshold setting at 11.01_(m. All samples were tested in triplicate and serum-deprived controls (BME only) were assayed at both the beginning and end of each experiment.

[4] = serum-deprived C3H/10T1/2 cells, 24 hours of treatment

CCCCCCCCCCCCCCOCC(O)COP(=O)(O)O (racemic) [Compound 4, 3-O-Tetradecyl-rac-glycero-1-phosphate]
Maximum effect relative to 18:1 LPA: Toxic (C3H/10T1/2 cells [1]): Toxic | lowest concentration at which cytotoxic effects were observed (column Concentration for Max Effect) (C3H/10T1/2 cells [1]; mouse, 24 h): 10 µM | Toxic concentration range in cardiomyocytes ([2]; serum/glucose deprivation): Toxic (3-30 μM)

CCCCCCCCCCOCC(O)COP(=O)(O)O (racemic) [Compound 11, 3-O-Decyl-rac-glycero-1-phosphate]
Emax ([2]; serum/glucose deprivation): 100% | Concentration ranges for cardiomyocyte protection ([2]; serum/glucose deprivation): 1 to 10 µM

CCCCCCCC/C=C\CCCCCCCCOCC(O)COP(=O)(O)O (racemic) [Compound 12, 3-O-Oleyl-rac-glycero-1-phosphate]
Emax (C3H/10T1/2 cells [1]; Mus musculus, serum-deprived C3H/10T1/2 cells, 24 hours of treatment, read-out: Maximum effect relative to 18:1 LPA): 100% | Concentration for Max Effect (C3H/10T1/2 cells [1]; [4]): 10 µM | Emax ([2]; serum/glucose deprivation): 100% | Concentration ranges for cardiomyocyte protection ([2]; serum/glucose deprivation): 1 to 10 µM

CCCCCCCC/C=C\CCCCCCCC(=O)OCC(COP(=O)(OC)OC)OC (racemic) [Compound 45, Dimethyl 3-O-oleoyl-2-O-methyl-rac-glycero-1-phosphate]
Emax [2]: 30% | Concentration ranges for cardiomyocyte protection ([2]; serum/glucose deprivation): 30 µM

CCCCCCCC/C=C\CCCCCCCC(=O)OCC(COP(O)(O)=S)OC (racemic) [Compound 48, 3-O-Oleoyl-2-O-methyl-rac-glycero-1-thiophosphate]
activity compared with lysophosphatidic acid (C3H/10T1/2 cells [1]): activity significantly higher than lysophosphaticid acid | Concentration for Max Effect (C3H/10T1/2 cells [1]; [4]): 1 µM | Maximum effect relative to 18:1 LPA (C3H/10T1/2 cells [1]; [4]): 130% | Concentration ranges for cardiomyocyte protection ([2]; serum/glucose deprivation): .03 to 10 µM | Maximum effect relative to 18:1 LPA in cardiomyocytes ([2]; serum/glucose deprivation): 100%

CCCCCCCC/C=C\CCCCCCCCOCC(COP(O)(O)=S)OC (racemic) [Compound 66, 3-O-Oleyl-2-O-methyl-rac-glycero-1-thiophosphate]
activity compared with lysophosphatidic acid (C3H/10T1/2 cells [1]): activity significantly higher than lysophosphaticid acid | Concentration for Max Effect (C3H/10T1/2 cells [1]; [4]): 1 µM | Maximum effect relative to 18:1 LPA (C3H/10T1/2 cells [1]; [4]): 130% | Concentration ranges for cardiomyocyte protection ([2]; serum/glucose deprivation): .03 to 1 µM | Maximum effect relative to 18:1 LPA in cardiomyocytes ([2]; serum/glucose deprivation): 60%

CCCCCCCC/C=C\CCCCCCCCOC(=O)C(COP(O)(O)=S)OC (racemic) [Compound 78, Oleyl 1-thiophosphoryl-2-O-methyl-rac-glycerate]
activity compared with lysophosphatidic acid (C3H/10T1/2 cells [1]): activity significantly higher than lysophosphaticid acid | Concentration for Max Effect (C3H/10T1/2 cells [1]; [4]): 1 µM | Maximum effect relative to 18:1 LPA (C3H/10T1/2 cells [1]; [4]): 160% | Concentration ranges for cardiomyocyte protection ([2]; serum/glucose deprivation): .01 to 3 µM | Maximum effect relative to 18:1 LPA in cardiomyocytes ([2]; serum/glucose deprivation): 130%

CCCCCCCC/C=C\CCCCCCCCOCCCOP(=O)(O)O [Compound 16, 3-O-Oleyloxypropyl-1-phosphate]
Concentration for Max Effect (C3H/10T1/2 cells [1]; [4]): 10 µM | Maximum effect relative to 18:1 LPA (C3H/10T1/2 cells [1]; [4]): 100% | Concentration ranges for cardiomyocyte protection ([2]; serum/glucose deprivation): 1 to 3 µM | Maximum effect relative to 18:1 LPA in cardiomyocytes ([2]; serum/glucose deprivation): 100%

CCCCCCCCCCOCCCOP(=O)(O)O [Compound 19, 3-Decyloxypropyl-1-phosphate]
Concentration for Max Effect (C3H/10T1/2 cells [1]; [4]): 30 µM | Maximum effect relative to 18:1 LPA (C3H/10T1/2 cells [1]; [4]): 50% | Concentration ranges for cardiomyocyte protection ([2]; serum/glucose deprivation): 1 to 10 µM | Maximum effect relative to 18:1 LPA in cardiomyocytes ([2]; serum/glucose deprivation): 100%

Casein
Protein +10 (g/mL Soy LPA, percent cells saved from apoptosis) (C3H/10T1/2 cells [3]): 84.3% | Increase with LPA (C3H/10T1/2 cells [3]): +20.9% | Protein Alone (0.01%), percent cells saved from apoptosis (C3H/10T1/2 cells [3]): 63.4% | enhancement of the anti-apoptotic activity of soy-LPA (more than additive protection) (C3H/10T1/2 cells [3]): to a lesser degree

Myelin Basic Protein
Protein +10 (g/mL Soy LPA, percent cells saved from apoptosis) (C3H/10T1/2 cells [3]): 17.0% | Increase with LPA (C3H/10T1/2 cells [3]): +0.2% | Protein Alone (0.01%), percent cells saved from apoptosis (C3H/10T1/2 cells [3]): 16.8% | enhancement of the anti-apoptotic activity of soy-LPA (more than additive protection) (C3H/10T1/2 cells [3]): did not enhance

B1: Myoglobin: myoglobin from horse heart (protein, UniProt P68082 2-154, looked up)
Myoglobin: GLSDGEWQQVLNVWGKVEADIAGHGQEVLIRLFTGHPETLEKFDKFKHLKTEAEMKASEDLKKHGTVVLTALGGILKKKGHHEAELKPLAQSHATKHKIPIKYLEFISDAIIHVLHSKHPGDFGADAQGAMTKALELFRNDIAAKYKELGFQG
Protein +10 (g/mL Soy LPA, percent cells saved from apoptosis) (C3H/10T1/2 cells [3]): 27.8% | Increase with LPA (C3H/10T1/2 cells [3]): +18.5% | Protein Alone (0.01%), percent cells saved from apoptosis (C3H/10T1/2 cells [3]): 9.3% | enhancement of the anti-apoptotic activity of soy-LPA (more than additive protection) (C3H/10T1/2 cells [3]): to a lesser degree
